The source of these data is patent US10150787B2, “TC-PTP inhibitors as APC activators for immunotherapy” (THE ROYAL INSTITUTION FOR THE ADVANCEMENT OF LEARNING / …, priority 2014, dated 2018).

In one assay the target is TC-PTP (Homo sapiens (Human), UniProt P17706). In words: Enzyme Assay for TC-PTP. The format is biochemical. The settings on record: inhibition of TC-PTP enzymatic activity. On the procedure:
1) Enzyme Assay for TC-PTP
• Assay buffer: 50 mM Bis-Tris (pH=6.3) • 2 mM EDTA • 5 mM N,N′-dimethyl-N,N′-bis(mercaptoacetyl)hydrazine (DMH) • Substrate: 10 mM fluorescein diphosphate (FOP) store at −20° C. (also can use 10 mM DiFMUP) • Enzyme dilution buffer: 50 mM Bis-Tris (pH=6.3) • 2 mM EDTA • 5 mM DMH • 20% (v/v) glycerol • 0.01% Triton X-100
The assay was carried out at room temperature in 96 well plates. The reaction mixture in 170 μl contained 50 mM Bis-Tris (pH=6.3), 2 mM EDTA, 5 mM N,N′-dimethyl-N,N′bis(mercaptoacetyl)hydrazine (DMH) and 10 μM fluorescein diphosphare (FDP) or 6,8-difluoro-4-methylumbelliferyl phosphate (DiFMUP). 10 μl of 10 concentrations (serial dilution) of the test compound (inhibitor) dissolved in DMSO or DMSO alone for control was added to each well and the plate was mixed for 2 min. The reaction was initiated by adding 20 μl of diluted TC-PTP (50 nM for FDP, 0.5 nM for DiFMUP in 50 mM Bis/Tris (pH=6.3), 2 mM EDTA, 5 mM DMH, 20% glycerol and 0.01% Triton X-100. The phosphatase activity was followed by monitoring the appearance of the fluorescent product fluorescein monophosphate (FMP) or 6,8-difluoro-7-hydroxyl-4-coumarin (DiFMU) continuously for 15-30 min, using the Spectromax Gemini fluorescent plate reader ([…]) with excitation of 440 nm and emission at 530 nm (cutoff filter at 525 nm) for FDP and excitation at 360 nm and emission at 450 nm (cutoff filter at 435 nm) for DiFMUP. All the assays were done at least in duplicate. The initial rate of FMP or DiFMU formation is plotted against the concentration of inhibitor and the data was fitted to 4-parameter equation and the inflection point of the fit is the IC50.

The subject of the next assay is monocyte-derived DCs. In words: Mouse Dendritic Cell Assay (IL-12 production). Particulars: for % increase in IL-12 production: 24 h IL-12 production following 6 days of DC incubation and maturation in the presence of 32 μM of test compound vs vehicle-treated cells; for potency in the IL-12 release assay (in words): IL-12 release assay shown in Example 12. Type of assay: cell-based. On the procedure: Mouse bone marrow cells were flushed from the femur and tibia into RPMI (supplemented with 10% FBS, gentamicin, HEPES, non-essential amino acids) using a syringe equipped with a 23 gauge needle. Clumps were dispersed by gently passing the cell suspension several times through the syringe. Any remaining clumps of cells and debris were removed by passing cell suspension through a 70 μM nylon strainer. The suspension was centrifuged (300×g for 10 mins), the supernatant was discarded and the cells were resuspended in 5 ml of red cell lysis buffer (SIGMA). The cells were counted and mouse monocytes cells (CD11b+) were isolated according to the instructions for positive selection of CD11 b cells (Stemcell technologies). The cells were then resuspended in RPMI media supplemented with 10% FBS, gentamicin, Hepes and non-essential aminoacids (aa) and treated with 40 ng/ml of recombinant mouse GM-CSF and IL-4 (Peprotech). Mouse monocytes were plated at 1×10^6 cells/mL. The cells were incubated for 6 days at 37° C., 5% CO2 in a humidified incubator in the presence of different concentrations of the compounds (0-32 μM). The media was changed every three days by removing half of the media from the plate and replenishing with the same volume of fresh media supplemented with cytokines and the test compounds at the same concentrations.
Immature monocyte-derived DCs may be incubated with a DC maturation cocktail containing the test compounds and incubated for an additional 24-72 hours. There are many DC maturation cocktails identified in the literature, with the “gold standard” consisting of 10 ng/ml TNF-α, 10 ng/ml IL-1β, 1000 units/ml IL-6 and 1 μg/mL PGE2. Alternatively, MPLA (10 μg/mL) and IFNγ (500 U/ml, Peprotech, for clinical research) has also been used. For the data shown in Example 12, the immature monocyte-derived DCs were cultured with LPS (1 μg/mL)) for 48 hours to induce maturation. Test compounds were included in the maturation cocktail at concentrations varying between 1 and 32 μM.
(§1) Characteristics of the mature DCs can be determined by a number of assays including flow cytometry analysis of the surface markers expressed on DCs, the cytokine production profile of activated DCs, antigen presentation assay and in vivo experiments to assess the DC-mediated antitumor response and cancer immunity.

In assay [1] the test system is dendritic cells derived from monocytes taken from human pancreatic cancer patients. In words: Human Dendritic Cell Assay (IL-12 release). The format is cell-based. The settings on record: DCs matured in the presence of the compound vs the same cells matured without it. On the procedure: A sample of human blood was diluted with an equal volume of PBS plus 2% FBS. The diluted blood was layered on top of Lymphoprep (Stemcell technologies) being careful to minimize the mixing of the blood with Lymphoprep. The mixture was centrifuged at 800×g for 20 minutes at room temperature with brake off. If the blood had been stored for more than 2 hours, the centrifugation time was increased to 30 minutes. The upper plasma layer was then removed and discarded without disturbing the plasma-lymphoprep interface. The mononuclear cell layer (PMBC) at the plasma-lymphoprep interface was removed and retained without disturbing the erythrocyte/granulocyte pellet. The mononuclear cells were washed once with media and the CD14+ cells were isolated according to the instructions for the positive selection of CD14+ kit (Stemcell technologies). The resulting CD14+ cells were cultured in PromoCell monocyte attachment media (PromoCell). Cells were plated at 0.5×10^6 cells/cm^2 and incubated for 1 h at 5% CO2 and 37° C. in a humidified incubator. […]
as §1

The test system of a further assay is EG7 lymphoma cells. In words: Mouse Syngeneic Tumor Model, treated with inhibitor-activated mature dendritic cells. The format is in vivo. Particulars: tumor volume in mice 28 days following a single treatment of mature dendritic cells activated by the compound; Example 5 vs Example 6. The text has this: A novel dual reporter (GFP & luciferase) MSCV based plasmid was creating by subcloning from two commercially available constructs (addgene 19360: pLenti pgk and addgene 18751: MSCV-IRES-GFP). This construct was used to generate retrovirus for infection of EG7 lymphoma cells (ATCC#CRL-2133). EG7-ova expressing cells are a commonly used model for T cell lymphoma engineered to express the ovalbumin antigen making them useful in immunological and drug discovery applications. These cells were then GFP sorted at the McGill University Life Sciences Complex flow cytometry core (BD FACscalibur) prior to subcutaneous implantation (5×10^5 cells) in syngeneic C57bl6 mice (Harlan). Tumors were allowed to establish in the mice and then were imaged ten days post implantation (Perkin Elmer IVIS100) and luminescence was quantified using IVIS software. Mice were then treated on day 10 post injection with 2×10^6 ex vivo-derived and inhibitor-treated mature dendritic cells (IP injection) (see ex vivo activation of monocyte derived DC with PTP inhibitor). Ovalbulim was added to DC cultures during maturation at a concentration of 2.5 mg/mL. Following maturation, DCs were harvested by gently resuspending with phosphate-buffered saline to dislodge any loosely attached cells. Cells were then spun down and washed twice with phosphate-buffered saline. […]

TC-PTP, sequence (P17706 whole entry, species assumed): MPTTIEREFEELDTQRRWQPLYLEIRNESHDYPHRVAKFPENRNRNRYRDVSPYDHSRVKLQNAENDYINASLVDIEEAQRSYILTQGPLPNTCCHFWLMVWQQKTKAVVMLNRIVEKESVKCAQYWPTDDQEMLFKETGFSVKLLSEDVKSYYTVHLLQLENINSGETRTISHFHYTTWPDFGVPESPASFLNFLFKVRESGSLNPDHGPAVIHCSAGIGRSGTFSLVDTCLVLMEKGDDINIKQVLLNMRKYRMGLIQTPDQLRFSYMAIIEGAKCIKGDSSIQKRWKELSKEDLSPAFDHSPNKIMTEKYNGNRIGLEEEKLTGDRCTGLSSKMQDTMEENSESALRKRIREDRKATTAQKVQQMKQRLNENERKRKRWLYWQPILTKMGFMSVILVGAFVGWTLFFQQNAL

What is called IC50 is the concentration needed to halve the response being measured. Low values mean greater potency in that assay, high ones weaker potency in that assay. `CCOC(=O)c1cc2cc(Br)c(C(F)(F)P(=O)(O)O)cc2s1` [Ex. 7, ((5-Bromo-2-(Ethoxycarbonyl)Benzo[b]Thiophen-6-yl)Difluoromethyl)Phosphonate] gave an IC50 on TC-PTP of 740 nM. Besides, in the assay with monocyte-derived DCs, the “% increase in IL-12 production” value is recorded as 171%. Also, the “release of IL-12” value in assay [1] is on record as “greater release of IL-12”.
The compound `O=C(O)c1cc2cc(Br)c(C(F)(F)P(=O)(O)O)cc2s1` [Ex. 9, ((5-Bromo-2-(Carboxy)Benzo[b]Thiophen-6-yl)Difluoromethyl)Phosphonate] yielded a half-inhibitory concentration (IC50) against TC-PTP of 170 nM.
`NC(=O)c1cc2cc(C(F)(F)P(=O)(O)O)c(Br)cc2s1` [Ex. 3, ((6-Bromo-2-Carbamoylbenzo[b]Thiophen-5-yl)Difluoromethyl)Phosphonate] returned a 50% inhibitory concentration (IC50) at TC-PTP of 280 nM. Also, the “% increase in IL-12 production” value in the assay on monocyte-derived DCs stood at 130%.
`N#CCc1cc2cc(C(F)(F)P(=O)(O)O)c(Br)cc2s1` [Ex. 6, ((6-Bromo-2-(Cyanomethyl)Benzo[b]Thiophen-5-yl)Difluoromethyl)Phosphonate]: the IC50 against TC-PTP amounted to 370 nM. Moreover, in the assay on monocyte-derived DCs, the “% increase in IL-12 production” value is recorded as 60% and the “potency in the IL-12 release assay (in words)” value is on record as “less potent”.
As for `N#Cc1cc2cc(C(F)(F)P(=O)(O)O)c(Br)cc2s1` [Ex. 4, ((6-Bromo-2-Cyanobenzo[b]Thiophen-5-yl)Difluoromethyl)Phosphonate], half-maximal inhibition at TC-PTP (IC50) was put at 1200 nM. The “% increase in IL-12 production” value with monocyte-derived DCs is 85%.
The compound `COC(=O)c1cc2cc(Br)c(C(F)(F)P(=O)(O)O)cc2s1` [Ex. 8, ((5-Bromo-2-(Methoxycarbonyl)Benzo[b]Thiophen-6-yl)Difluoromethyl)Phosphonate] registered a half-maximal inhibitory concentration (IC50) against TC-PTP of 2900 nM.
On to `O=C(O)c1cc2cc(C(F)(F)P(=O)(O)O)c(Br)cc2s1` [Ex. 2, 6-Bromo-5-(Difluoro(Phosphonato)Methyl)Benzo[b]Thiophene-2-Carboxylate], for which, at TC-PTP, the IC50 was determined as 260 nM. The “% increase in IL-12 production” value in the assay with monocyte-derived DCs is 143%.
For `N#Cc1ccc2cc(Br)c(C(F)(F)P(=O)(O)O)cc2c1` [Ex. 10, [(3-Bromo-7-Cyano-2-Naphthyl)(Difluoro)Methyl]Phosphonate] the same measures were 490 nM and 42%.
For `CCOC(=O)c1cc2cc(C(F)(F)P(=O)(O)O)c(Br)cc2s1` [Ex. 1, ((6-Bromo-2-(Ethoxycarbonyl)Benzo[b]Thiophen-5-yl)Difluoromethyl)Phosphonate], in that order: 450 nM and 161%.
At TC-PTP, `O=P(O)(O)C(F)(F)c1cc2cc(CO)sc2cc1Br` [Ex. 5, ((6-Bromo-2-(Hydroxymethyl)Benzo[b]Thiophen-5-yl)Difluoromethyl)Phosphonate] showed an IC50 of 1500 nM. In the assay with monocyte-derived DCs, the “% increase in IL-12 production” value is 144% and the “potency in the IL-12 release assay (in words)” value is reported as “potent”. The “efficacy at reducing tumor volume” value in the assay with EG7 lymphoma cells was “greater efficacy at reducing tumor volume”.
